Measured values from patent US20180193412A1, “Method of In Vivo Treatment” (Hexima Limited, priority 2015, published 2018).

What was measured:
C. gattii = assay: Inhibition of growth of C. gattii, Example 2 antifungal assay; assay type: cell-based; conditions: ½ strength PDB, 30° C., A595
Procedure: (§1) The inhibitory effects of the plant defensins on the growth of Candida albicans, Aspergillus fumigatus (obtained from the National Mycology Reference Centre, South Australia Pathology at the Women's and Children's Hospital, Adelaide, Australia), C. glabrata, C. tropicalis, A. flavus, A. niger, A. fumigants, Cryptococcus neoformans and C. gattii (obtained from Dee Carter, University of Sydney, New South Wales, Australia) are measured essentially as described by Broekaert et al. (1990) FEMS Microbiol Lett 69:55-59.
(§2) Spores of A. flavus. A. niger and A. fumigatus are isolated from sporulating fungus growing on ½ strength Sabouraud dextrose agar. Spores were removed from the plates by the addition of ½ strength potato dextrose broth (PDB). C. albicans, C. glabrata, C. tropicalis, C. neoformans and C. gattii cells are grown in Yeast Peptone Broth (YPD) for 16 h. Spore and cell concentrations are measured using a hemocytometer.
(§3) Antifungal assays are conducted in 96 well microtitre plates essentially as herein described. Wells are loaded with 20 μL of filter sterilized (0.22 μm syringe filter, Millipore) defensin (10× stock for each final concentration) or water and 80 μL of 5×10^4 spores/mL (A. flavus, A. niger, A. fumigatus), 5,000 cells/mL (C. albicans, C. glabrata, C. tropicalis) or 1×10^6 cells/mL (C. neoformans, C. gattii) in ½ strength PDB. The plates are incubated at 30° C. Fungal growth is assayed by measuring optical density at 595 nm (A595) using a microtitre plate reader (SpectraMax Pro M2; Molecular Devices. Growth is allowed to proceed until the optical density (OD) of the fungus in the absence of any test defensin reached an OD of 0.2. Each test is performed in duplicate.

B. subtilis = assay: Inhibition of the growth of Bacillus subtilis (OD595, 18 hours); assay type: cell-based; conditions: for IC50: Mueller-Hinton Broth, 37° C., 18 hours, up to 20 μM, read-out: IC50 against B. subtilis; for Inhibition of growth of B. subtilis: at the concentrations tested (0.3125-20 μM)
Procedure: (§4) A single E. coli or B. subtilis colony was used to inoculate 5 ml of Luria-Bertani media and grown overnight at 37° C. The following day, the optical density of the culture was measured and the bacteria diluted to an optical density at 600 nm (OD600) of 0.01 in Mueller-Hinton Broth. Diluted E. coli or B. subtilis were added to 96-well plates with defensins at concentrations of 20 μM, 10 μM, 5 μM, 2.5 μM, 1.25 μM, 0.625 μM or 0.3125 μM. Plates were read at OD595 to obtain time zero data points. Plates were incubated at 37° C. for 18 hours before reading again at OD595 to assess the amount of bacterial growth.

A. fumigatus = assay: Inhibition of growth of Aspergillus fumigatus, Example 2 antifungal assay; assay type: cell-based; conditions: ½ strength PDB, 30° C., A595
Procedure: as §1, §2, §3

E. coli = assay type: cell-based, Escherichia coli; conditions: for IC50: Mueller-Hinton Broth, 37° C., 18 hours, up to 20 μM, read-out: IC50 against E. coli; for Inhibition of growth of E. coli: at the concentrations tested (0.3125-20 μM)
Procedure: as §4

C. tropicalis = assay: Inhibition of growth of C. tropicalis, Example 2 antifungal assay; assay type: cell-based; conditions: ½ strength PDB, 30° C., A595
Procedure: as §1, §2, §3

A. flavus = assay: Inhibition of growth of A. flavus, Example 2 antifungal assay; assay type: cell-based; conditions: ½ strength PDB, 30° C., A595
Procedure: as §1, §2, §3

C. glabrata = assay: Inhibition of growth of C. glabrata, Example 2 antifungal assay; assay type: cell-based; conditions: ½ strength PDB, 30° C., A595
Procedure: as §1, §2, §3

A. niger = assay: Inhibition of growth of A. niger, Example 2 antifungal assay; assay type: cell-based; conditions: ½ strength PDB, 30° C., A595
Procedure: as §1, §2, §3

T. albicans = assay: Inhibition of growth of C. albicans by plant defensins, Example 1 (microtitre A595 antifungal assay); assay type: cell-based; conditions: for IC50 against T. albicans: Table 3, ½ strength PDB, 30° C., A595
Procedure: (§5) The inhibitory effects of the plant defensins on the growth of Trichophyton rubrum, T. interdigitale, Microsporum fulvum and C. albicans (all obtained from the National Mycology Reference Centre, South Australia Pathology at the Women's and Children's Hospital, Adelaide, Australia) are measured essentially as described by Broekaert et al. (1990) FEMS Microbiol Lett 69:55-59.
as §2, with “T. rubrum, T. interdigitale” for “A. flavus. A. niger”, “M. fulvum” for “A. fumigatus”, “albicans” for “albicans, C. glabrata, C. tropicalis, C. neoformans and C. gattii”
as §3, with “Ξ m” for “μm”, “(T. rubrum, T. interdigitale, M. fulvum) or” for “(A. flavus, A. niger, A. fumigatus),”, “albicans)” for “albicans, C. glabrata, C. tropicalis) or 1×10^6 cells/mL (C. neoformans, C. gattii)”

C. neoformans = assay: Inhibition of growth of Cryptococcus neoformans, Example 2 antifungal assay; assay type: cell-based; conditions: ½ strength PDB, 30° C., A595
Procedure: as §1, §2, §3

[1] = tested on: Trichophyton rubrum, T. interdigitale, Microsporum fulvum and C. albicans; assay: Inhibition assays of Example 1, summary across the range of fungal pathogens; assay type: cell-based; conditions: summary of Table 3, at the concentrations tested
Procedure: as §5
as §2, with “T. rubrum, T. interdigitale” for “A. flavus. A. niger”, “M. fulvum” for “A. fumigatus”, “albicans” for “albicans, C. glabrata, C. tropicalis, C. neoformans and C. gattii”
as §3, with “Ξ m” for “μm”, “(T. rubrum, T. interdigitale, M. fulvum) or” for “(A. flavus, A. niger, A. fumigatus),”, “albicans)” for “albicans, C. glabrata, C. tropicalis) or 1×10^6 cells/mL (C. neoformans, C. gattii)”

T. rubrum = assay: Inhibition of growth of Trichophyton rubrum by plant defensins (microtitre A595 antifungal assay); assay type: cell-based; conditions: ½ strength PDB, 30° C.
Procedure: as §5
as §2, with “T. rubrum, T. interdigitale” for “A. flavus. A. niger”, “M. fulvum” for “A. fumigatus”, “albicans” for “albicans, C. glabrata, C. tropicalis, C. neoformans and C. gattii”
as §3, with “Ξ m” for “μm”, “(T. rubrum, T. interdigitale, M. fulvum) or” for “(A. flavus, A. niger, A. fumigatus),”, “albicans)” for “albicans, C. glabrata, C. tropicalis) or 1×10^6 cells/mL (C. neoformans, C. gattii)”

C. albicans = assay: Inhibition of growth of Candida albicans, Example 2 antifungal assay; assay type: cell-based; conditions: Table 4; ½ strength PDB, 30° C., A595
Procedure: as §1, §2, §3

M. fulvum = assay: Inhibition of growth of Microsporum fulvum by plant defensins (microtitre A595 antifungal assay); assay type: cell-based; conditions: for IC50 against M. fulvum: ½ strength PDB, 30° C., A595
Procedure: as §5
as §2, with “T. rubrum, T. interdigitale” for “A. flavus. A. niger”, “M. fulvum” for “A. fumigatus”, “albicans” for “albicans, C. glabrata, C. tropicalis, C. neoformans and C. gattii”
as §3, with “Ξ m” for “μm”, “(T. rubrum, T. interdigitale, M. fulvum) or” for “(A. flavus, A. niger, A. fumigatus),”, “albicans)” for “albicans, C. glabrata, C. tropicalis) or 1×10^6 cells/mL (C. neoformans, C. gattii)”

T. interdigitale = assay: Inhibition of growth of T. interdigitale by plant defensins (microtitre A595 antifungal assay); assay type: cell-based, Trichophyton interdigitale; conditions: ½ strength PDB, 30° C.
Procedure: as §5
as §2, with “T. rubrum, T. interdigitale” for “A. flavus. A. niger”, “M. fulvum” for “A. fumigatus”, “albicans” for “albicans, C. glabrata, C. tropicalis, C. neoformans and C. gattii”
as §3, with “Ξ m” for “μm”, “(T. rubrum, T. interdigitale, M. fulvum) or” for “(A. flavus, A. niger, A. fumigatus),”, “albicans)” for “albicans, C. glabrata, C. tropicalis) or 1×10^6 cells/mL (C. neoformans, C. gattii)”

Compound	IC50 against C. gattii (C. gattii) [µg/mL]	IC50 (B. subtilis) [µM]	IC50 against A. fumigatus (A. fumigatus) [µg/mL]	IC50 (E. coli) [µM]	IC50 against C. tropicalis (C. tropicalis) [µg/mL]	IC50 against A. flavus (A. flavus) [µg/mL]	IC50 against C. glabrata (C. glabrata) [µg/mL]	IC50 against A. niger (A. niger) [µg/mL]	IC50 against T. albicans (T. albicans) [µg/mL]	IC50 against C. neoformans (C. neoformans) [µg/mL]	Activity across the range of fungal pathogens [1]	IC50 against T. rubrum (T. rubrum) [µg/mL]	IC50 against C. albicans (C. albicans) [µg/mL]	IC50 against M. fulvum (M. fulvum) [µg/mL]	IC50 against T. interdigitale (T. interdigitale) [µg/mL]	Inhibition of growth of B. subtilis (B. subtilis)	Inhibition of growth of E. coli (E. coli)	Inhibition of C. albicans (T. albicans; summary of Table 3)	Inhibition of M. fulvum (M. fulvum; summary of Table 3)
HXL013: Class I plant defensin from Glycine max (KDCLTRRHGFQGRCLFDRQCAHVCRSDGFIGGQCRGPLRKCFCSRPC; HXL013 Glycine max)	22	10	>100	> 20	12	>100	25	>100	20	9	intermediate activity	22	20	5.5	–	–	–	–	–
HXL015: Class I plant defensin from Oryza sativa (RHCLSQSHRFKGMCVSSNNCANVCRTESFPDGECKSHGLERKCFCKKVC; HXL015 Oryza sativa)	–	–	–	–	–	–	–	–	–	–	intermediate activity	10	5	12.5	3.5	–	–	–	–
CC[C@H](C)[C@H](NC(=O)[C@H](CCCCN)NC(=O)[C@H](CCC(=O)O)NC(=O)[C@H](CCCCN)NC(=O)[C@H](CO)NC(=O)[C@H](CCCCN)NC(=O)[C@H](CCCNC(=N)N)NC(=O)[C@H](Cc1ccccc1)NC(=O)[C@H](Cc1ccccc1)NC(=O)[C@H](CC(=O)O)NC(=O)CNC(=O)[C@H](CC(C)C)NC(=O)[C@@H](N)CC(C)C)C(=O)NCC(=O)N[C@@H](CCCCN)C(=O)N[C@@H](CCC(=O)O)C(=O)N[C@@H](Cc1ccccc1)C(=O)N[C@@H](CCCCN)C(=O)N[C@@H](CCCNC(=N)N)C(=O)N[C@H](C(=O)N[C@H](C(=O)N[C@@H](CCC(N)=O)C(=O)N[C@@H](CCCNC(=N)N)C(=O)N[C@H](C(=O)N[C@@H](CCCCN)C(=O)N[C@@H](CC(=O)O)C(=O)N[C@@H](Cc1ccccc1)C(=O)N[C@@H](CC(C)C)C(=O)N[C@@H](CCCNC(=N)N)C(=O)N[C@@H](CC(N)=O)C(=O)N[C@@H](CC(C)C)C(=O)N[C@H](C(=O)N1CCC[C@H]1C(=O)N[C@@H](CCCNC(=N)N)C(=O)N[C@H](C(=O)N[C@@H](CCC(=O)O)C(=O)N[C@@H](CO)C(=O)O)[C@@H](C)O)C(C)C)[C@@H](C)CC)C(C)C)[C@@H](C)CC [LL37, reference compound]	–	–	–	2.5	–	–	–	–	–	–	–	–	–	–	–	–	–	–	–
HXL002: Class I plant defensin from Triticum aestivum (RDCLSQSHKFKGACLSSSNCAAVCRTENFPDGECHTHNFARKCFCKRAC; HXL002 Triticum aestivum)	18	> 20	25	> 20	2	–	15	20	35	2.5	–	–	35	50	–	did not inhibit the growth	did not inhibit the growth	very poor inhibitors	very poor inhibitors
HXL001: Class I plant defensin from Zea mays (RHCLSQSHRFKGLCMSSNNCANVCQTENFPGGECKAEGATRKCFCKKIC; HXL001 Zea mays)	40	> 20	>100	> 20	6	>100	32	>100	35	10	did not display any activity	>100	35	>100	–	did not inhibit the growth	did not inhibit the growth	–	–
HXL003: Class I plant defensin from Triticum aestivum (ARDCTSQSHKFVGLCLSDRNCASVCLTEYFTGGKCDHRRCVCTKGC; HXL003 Triticum aestivum)	20	> 20	>100	> 20	8	>100	>100	>100	>100	3	–	–	>100	>100	–	did not inhibit the growth	did not inhibit the growth	–	–
NaD1: Solanaceous Class II plant defensin from Nicotiana alata (RECKTESNTFPGICITKPPCRKACISEKFTDGHCSKILRRCLCTKPC; NaD1 Nicotiana alata)	5	–	8	> 20	2.5	20	14	16	20	3	–	8	20	5.3	10	did not inhibit the growth	did not inhibit the growth	–	–
HXL009: Class I plant defensin from Zea mays (TVCMRHNNFYHGPCMSNKDCANSCVQHNLGVGGYCRGKIPFNKECMCTFEC; HXL009 Zea mays)	38	> 20	>100	> 20	12	>100	>100	>100	>100	8	did not display any activity	–	>100	>100	–	–	–	–	–
